In patent US20040259823A1, “Cationic amphiphiles as transfection vehicles” (priority 2001, published 2004):

What was measured:
Assay type in all cases: cell-based
COS-7 and HepG2 cells [1] = experiment: Transfection with pCMV GFP plasmid, % GFP positive cells by FACS (cell line not given); settings: cell line and helper lipid not given
Method: (§1) Transfections were carried out following standard protocols as is described in EP 0755924. In numerous publications variations of transfection protocols are given. A person acquainted with the field of non-viral transfections, in particular transfections using cationic amphiphiles will be able to use the cationic amphiphiles of the invention in transfection methods known per se. In standard experiments COS-7 cells are transfected with plasmid DNA containing the β-galactosidase reporter gene. Upon successful transfection the cell produces the enzyme β-galactosidase whose activity can be easily measured. Other plasmids comprising alternative reporter genes such as the gene encoding Green Fluorescent Protein or Chloroamphenicol Acetyl Transferase are suited as well. For analyzing stable transfection a plasmid containing the neomycin resistance gene can be used. Toxicity of the cationic amphiphiles towards the cells can be monitored qualitatively and quantitatively by visual inspection of the cells and by a protein determination.
A solution of cationic amphiphile in a 50/50 molar ratio with DOPE, DOPC or cholesterol in chloroform was dried under a stream of nitrogen. The residual solvent was removed under vacuum. The lipid film was hydrated in water at room temperature and sonicated to clarity in a bath sonicator immediately before use.
A 4.7 kb pair plasmid containing the GFP reporter gene under control of the cytomegalovirus immediate early gene promoter/enhancer (pCMV GFP).DNA was isolated from E. coli using a Qiagen Plasmid Kit (QIAGEN Inc, USA). The plasmid concentration was determined by measuring the absoption at 260 nm using the relation 1.0 OD=50 μg/ml. The OD260/OD280 value was 1.95.
(§2) COS-7 and HepG2 cells were cultured in Dulbecco's Modified Eagle Medium (DMEM Gibco The Netherlands) containing 7% of fetal calf serum, 2 mM L-Glutamine, 100 units/ml of penicilin and […] of streptomycin at 37° C. in CO2/air (1:19).
(§3) Cells (1×10^5 cells/well) were seeded in 12-well plates and were allowed to grow overnight.
(§4) The complex of cationic amphiphile/helper lipid (1:1) with pCMV GFP was prepared at the charge ratio 2.5:1 (15 nmol lipid and 1 μg DNA), in 100 μl 10 mM HEPES (pH=7.4, 150 mM NaCl). After 10-15 min incubation at room temperature, the resulting complex was diluted in 1 ml medium (DMEM) and 0.5 ml of the mixture was added to the cells and incubated for 4 h at 37° C. The transfection efficiency expressed as a percentage of GFP positive cells was measured by FACS (Fluorescence Activated Cell Soorting) 48 hours after the transfection.
(§5) Control wells underwent identical steps except that no cationic amphiphile was added.

COS-7 and HepG2 cells [2] = experiment: Cell survival after transfection (cell line not given); settings: cell line and helper lipid not given
Method: as §1, §2, §3, §4, §5

COS-7 and HepG2 cells [3] = experiment: Toxicity towards the cells by protein determination versus control wells; settings: protein determination compared with the reference value of control wells
Method: as §1, with “determination. Control wells underwent identical steps except that no cationic amphiphile was added.” for “determination.”

SMILES: CCCCCCCC/C=C\CCCCCCCCCc1cc[n+](CCCCCCCC/C=C\CCCCCCCC)cc1.[Cl-] [SF6, 1-(9′-cis-octadecenyl)-4-(10″-cis-nonadecenyl) pyridinium Chloride]
- % TE (COS-7 and HepG2 cells [1]; Table 1): 14.44%
- % TE (COS-7 and HepG2 cells [1]; Table 2): 11.48%
- % TE (COS-7 and HepG2 cells [1]; Table 7): 30.91%
- % TE (COS-7 and HepG2 cells [1]; Table 8): 9.96%
- % TE (COS-7 and HepG2 cells [1]; Table 9): 3.92%
- % TE (COS-7 and HepG2 cells [1]; Table 10): 9.14%
- % surv cells (COS-7 and HepG2 cells [2]; Table 1): 75.3%
- % surv cells (COS-7 and HepG2 cells [2]; Table 2): 47.3%
- % surv cells (COS-7 and HepG2 cells [2]; Table 7): 84.06%
- % surv cells (COS-7 and HepG2 cells [2]; Table 8): 57.21%
- % surv cells (COS-7 and HepG2 cells [2]; Table 9): 70.01%
- % surv cells (COS-7 and HepG2 cells [2]; Table 10): 61.57%
- toxicity towards the cells (COS-7 and HepG2 cells [3]): marginal toxicity
